Measurements from US4956381A, “Treating tissue calcium depletion or degenerative processes in bone or cartilage” (Sandoz Ltd., priority 1987, dated 1990).

Key:
lysozyme = experiment: Secretion of lysozyme from human monocytes; type: cell-based; conditions: human monocyte culture media
Procedure: Culture media from human monocytes are prepared as disclosed above. Lysozyme and lactate dehydrogenase (LDH) are monitored kinetically by using a Twinreader (Flow Laboratories AG) linked to a personal computer. Samples (50 μl) for LOH are mixed with 200 μl substrate mixture, containing in final concentrations 50 mM phosphate buffer, pH 7.5, 0.8 mM sodium pyruvate, 0.24 mM NADH and 0.04 % bovine albumin and the changes in absorbance at 340 nm are measured 11 times at 1-min intervals. The computer calculates the initial velocities which are used to determine the units. Samples (50 μl) for lysozyme are mixed with 100 μl suspension of 1.2 mg/ml M. Lysodeikticus in 67 mM phosphate buffer pH 6.2 and the changes in turbidity at 492 nm monitored 11 times at 4-min intervals. With every assay series, a calibration curve is made with crystalline hen egg-white lysozyme [J. Schnyder et.al., J. Exp. Med. 148, 435 (1978)]. No significant leakage of LDH from control and treated cell cultures is observed.

recombinant human IL-2 = experiment: Recombinant human IL-2 induced mouse thymocyte proliferation; type: cell-based; conditions: 10 ng/ml rh IL-2
Procedure: Lymphocyte proliferation is the standard test for monokine activity. It is highly sensitive, though relatively unspecific, with IL-2, phorbol myristate acetate, concanavalin A' g-type-prostaglandin and indomethacin-nall effecting disturbance. Human monocyte culture media are prepared as described under I.I.b. above, diluted 1:10, 1:20 and 1:40 (v:v), and added to […] (obtained from C3H/HeJ mice) Dulbecco's modified Eagle's medium, containing 20 mM hydroxyethyl-piperazin-ethane-sulfonic acid, 12 mM NaHCO3, 2 mM glutamine, 2% foetal bovine serum, 10 μM 2-mercaptoethanol, […] and antibiotics. The cells are incubated for 2 days in 96-well culture plates and the proliferation rate determined using a ^3 H-thymidine pulse (1 μC/well) during the final 6 hours. The incorporated radioactivity is collected on filter paper and counted. […] Thus determined ED50 s for the compounds D2 and K1 each in substantially pure Z-isomeric form in a series of 2 separate experiments each with 3 parallel determinations are of the order of 30 μM
In order to rule out an antagonistic effect or a direct influence of the COMPOUNDS OF THE INVENTION on the proliferation of mouse thymocytes which are used above in the LAF-test, the effect of the COMPOUNDS OF THE INVENTION on the incorporation of ^3 H-thymidine Is determined after thymocyte stimulation with recombinant human IL-1 or IL-2.

IL-1 = experiment: Effect on IL-1 synthesis and release (supernatants, homogenates, lysates of human monocytes); type: cell-based; conditions: chondrocyte bioassay and RIA
Procedure: 0.3 ml Phosphate-buffered saline, containing 1 % heat-in-activated AB-human serum, is added to washed adherent human monocytes and the cells are detached using a rubber-policeman. The solution containing the cells is then transferred to two other wells belonging to the same group. This procedure is repeated three times. The final pooled suspension (0.9 ml) is homogenized using a Dounce homogenizer (Kontes Co, Vineland, NJ) by five times 7 strokes with the B-pestle.
The lysate is prepared by adding to the washed human monocyte monolayers 0.3 ml 0.01 % digitonin in water.
50 μl homogenate is diluted to 500 μl with medium and added to confluent chondrocytes to monitor the metalloproteinase inducing activity as a measure of IL-I content.
The content of IL-1 was also determined in the culture media and the cell homogenates and cell lysates using the RIA-test (see 1.3.).

[1] = system: psoriatic arthritis or seronegative spondylarthrosis or osteoarthrosis; experiment: Clinical trial IV: degenerative joint disease; type: in vivo, human; conditions: ca. 200 to 1200 mg p.o./day, 8 weeks
Procedure: COMPOUND OF THE INVENTION, e.g. compound D2 or K1 in substantially pure Z-isomeric form, is administered at dosages of from ca. 200 to 1200 mg/p.o./day, once or in divided dosages up to 4×daily for 8 weeks. The subjects are examined at a regular interval of 2 weeks for disease progression on parameters such as pain sensation at the joints, evaluation of the functional capacity according to Steinbrocker, hand grip strength or Richtie Index.

human monocytes = experiment: Effect on the secretion of monokines (IL-1, TNF-α, IL-6); type: cell-based; conditions: IL-1 and TNF-α by RIA, IL-6 by bioassay
Procedure: Besides IL-1, TNF-α and IL-6 are two well recognized monokines that are released from stimulated monocytes.
Culture media from human monocytes are prepared as described above. The IL-1 and TNF-α content is monitored by the RIA-test, IL-6 by bioassay as disclosed below.
To measure IL-6 in conditioned media from human monocytes, 2.4×10^4 cells/ml B13.29 in 0.2 ml are cultured on 96-well plates (Costar) for 48 h with culture media, diluted in serum free Iscove's modified Dulbecco's medium supplemented with 200 U/ml of recombinant IL-6, 50 μM 2-mercaptoethanol and antibiotics. The proliferation rates are determined using a ^3 H-thymidine pulse (1 μC/well) during the final 6 h. The incorporated radioactivity is collected on filter paper, counted and related to a standard preparation of IL-6.

[2] = Acute toxicity (LD50) in rats; conditions: rat, in vivo, substantially pure Z-isomeric form
[3] = system: mouse peritoneal macrophages; experiment: Mouse macrophage monokine inhibition (chondrocyte bioassay); type: cell-based; conditions: 24 h, substantially pure Z-isomeric form, 3-5 separate experiments in triplicate, read-out: ED50 (suppression of monokine release)
Procedure: Purified IL-1, [Schnyder et al., J. Immunol. […] [c.f. […] J. Rheumatol.
Culture media are diluted 1:1 (v:v) with fresh medium and added to confluent rabbit chondrocytes. […] activity in the chondrocyte culture medium is monitored after a further two days.

COC1=Cc2ccccc2/C(=C/C(=O)O)c2ccsc21 [Compound D2, [10-Methoxy-4H-benzo[4,5]cyclohepta[1,2-b]thiophen-4-ylidene]-acetic acid]
release of lysozyme (lysozyme): reduces the release of lysozyme only marginally and not under the level of unstimulated controls
concentration dependency of influence on rh IL-2 induced proliferation (recombinant human IL-2): no concentration dependency is detectable
influence on recombinant human IL-2 induced proliferation (recombinant human IL-2; 3H-thymidine incorporation, mouse thymocytes): no significant influence
levels of IL-1 in the supernatant media (IL-1): significantly reduce the levels of IL-1 in the supernatant media
mean cellular content of IL-1 (IL-1; homogenates and lysates): only slightly reduced or remains unchanged
condition (degenerative joint disease) [1]: improvement in condition after the 8 week treatment period
inhibition of release of IL-1 compared with IL-6 and TNF-α (human monocytes): inhibit the release of IL-1 in a more significant rate than that of IL-6 and TNF-α
LD50 at 168 h ([2]; iv, 7 days): 50 mg/kg
LD50 at 336 h ([2]; po, 14 days): 1720 mg/kg
IC50 [3]: ~100 µM
